Columns and labels:
[1] = tested on: HCC1187 cells; assay: Single agent screening, alamarBlue proliferation assay; assay type: cell-based; settings: Homo sapiens, HCC1187, 72 hours, read-out: IC50 (μM) values of drugs used as single agent
Protocol: (§1) To determine effect of 6-(4-(tert-butyl)phenoxy)pyridin-3-amine with inhibitors of anti-apoptotic proteins, drugs listed in table 1 were used.
(§2) Cells were treated with each of the listed compounds in table 1 as single agent with a concentration ranging from 10 nM to 10 μM in duplicates. Following treatment for 72 hours, cells were incubated with alamarBlue® for 4 hours and cell proliferation readout was taken using Infinite® F500 (Tecan) plate reader. All volumes (cells and alamarBlue®) were dispensed using Multidrop Combi dispenser using a standard cassette (Speed MEDIUM).
(§3) AlamarBlue® viability assay: alamarBlue® proliferation assays were performed to determine the growth kinetics of compound treated cells. alamarBlue® consists of a cell permeable substrate resazurin. In metabolically active and proliferating cells, resazurin is converted to resorufin due to an intrinsic reducing power of live cells and produces a red fluorescence. Therefore, production of resorufin serves as an indicator of the viability of the cell population. Proliferation assays were performed by seeding 1500 cells/well in 384 well plate format. Cells were treated in duplicates with pre-determined concentration of compounds as a single agent or in combination with 6-(4-(tert-butyl)phenoxy)pyridin-3-amine for 72 hours. To determine growth kinetics, alamarBlue® (Invitrogen) was added to each well and incubated for 4 hours. alamarBlue® readout was taken using Infinite® F500 (Tecan) plate reader.
(§4) Data analysis for individual compounds: To determine anti-proliferative activity and IC50 values of individual compounds (listed in table 1) against HCC1187, MCF-7 and RPMI-8402 cells, data were analyzed using GraphPad Prism.

[2] = tested on: RPMI-8402 cells; assay: as above; assay type: cell-based; settings: Homo sapiens, RPMI-8402, 72 hours, read-out: IC50 (μM) values of drugs used as single agent
Protocol: as §1, §2, §3, §4

[3] = tested on: MCF-7 cells; assay: as above; assay type: cell-based; settings: Homo sapiens, MCF7, MCF-7, 72 hours, read-out: IC50 (μM) values of drugs used as single agent
Protocol: as §1, §2, §3, §4

[4] = tested on: ACC PDX (human adenoid cystic carcinoma patient-derived xenograft); assay: In vivo efficacy in ACC PDX model, tumor growth inhibition; settings: ACC PDX in athymic nude mice; for Percentange tumor growth inhibition (TGI): 6-(4-(tert-butyl)phenoxy)pyridin-3-amine 60 mg/kg SC qdx5, Navitoclax 50 mg/kg PO qdx5; for effect on ACC PDX tumor growth: doses of table 5, compared to vehicle
Source text: In Vivo Efficacy Evaluation of 6-(4-(tert-butyl)phenoxy)pyridin-3-amine and BCL-2 inhibitor ABT-263 (Navitoclax) in a NOTCH! and BCL-2 Positive Patient-Derived Xenograft (ACC PDX) Model Representing Human Adenoid Cystic Carcinoma in Immune-Deficient Mice
ACC PDX model was implanted into Immuno deficient mice and upon reaching a tumor volume of 150-300 mm^3, animals were randomized for treatment with different agents as indicated below.
Athymic mice transplanted with ACC PDX model were randomized into 4 treatment cohorts. Vehicle treatment • 2. 6-(4-(tert-butyl)phenoxy)pyridin-3 -amine • 3. ABT-263 • 4. 6-(4-(tert-butyl)phenoxy)pyridin-3-amine+ABT-263
Tumor volume was measured every 3-4 days. Mean tumor volume and SEM was calculated and Tumor growth inhibition was calculated using the formula TGI=1−(TXFavg−TXiavg)/(Cfavg−Ciavg), where TX is drug treatment group, favg=average tumor volume at treatment end, iavg=average tumor volume upon treatment initiation, C=Vehile treatment group.

[5] = tested on: Primary human T cell acute lymphoblastic leukemia with activated NOTCH pathway; assay: Efficacy in mice bearing primary human T-ALL, survival; assay type: in vivo; settings: NSG mice; 6-(4-(tert-butyl)phenoxy)pyridin-3-amine 40 mg/kg QD5 until termination, Venetoclax 25 mg/kg QD for 7 days
Protocol: Efficacy of 6-(4-(tert-butyl)phenoxy)pyridin-3-amine+Venetoclax combination Primary human T cell acute lymphoblastic leukemia with activated NOTCH pathway were intravenously infused into NSG mice. After 7 days of disease establishment, leukemia-bearing mice were treated as below: • 1. Group 1: Vehicle treatment • 2. Group 2: 6-(4-(tert-butyl)phenoxy)pyridin-3-amine treatment at 40 mg/kg, QD5 until termination of the group • 3. Group 3: Venetoclax treatment at 25 mg/kg, QD for 7 days only • 4. Group 4: Venetoclax at 25 mg/kg , QD for first 7 days+6-(4-(tert-butyl)phenoxy)pyridin-3-amine at 40 mg/kg, QD5 until termination of the group.
Animals were monitored for survival on a daily basis.

[6] = tested on: blood cells; assay: Safety evaluation in wildtype mice, whole blood analysis; assay type: in vivo; settings: 4 consecutive days, day 5 bleed, Venetoclax 12.5, 25, 50 mg/kg, 6-(4-(tert-butyl)phenoxy)pyridin-3-amine 60 mg/kg
Protocol: Wildtype mice were weighed and dosed for 4 consecutive days as below: • 1. Group 1: Vehicle+Vehicle • 2. Group 2: Vehicle+12.5 mg/kg Venetoclax • 3. Group 3: Vehicle+25 mg/k Venetoclax • 4. Group 4: Vehicle+50 mg/kg Venetoclax • 5. […] On day 5, animals were tail vein bled and whole blood analysis was carried out to determine numbers of different cells.

Row | Compound | IC50 [1] [µM] | IC50 [2] [µM] | IC50 [3] [µM] | Percentange tumor growth inhibition (TGI) [4] [%] | effect on ACC PDX tumor growth [4] | Number of days by which 100% animals died due to leukemia [5] [days] | effect on blood cells (whole blood analysis) [6]
1 | Cc1c(-c2c(-c3ccc(F)o3)sc3ncnc(O[C@H](Cc4ccccc4OCc4ccnn4CC(F)(F)F)C(=O)O)c23)ccc(OCCN2CCN(C)CC2)c1Cl (atropisomer, axis not shown) [S63845, (2R)-2-[5-[3-chloro-2-methyl-4-[2-(4-methylpiperazin-1-yl)ethoxy]phenyl]-6-(5-fluorofuran-2-yl)thieno[2,3-d]pyrimidin-4-yl]oxy-3-[2-[[2-(2,2,2-trifluoroethyl)pyrazol-3-yl]methoxy]phenyl]propanoic acid] | 0.24 | 0.04 | 0.37 | – | – | – | –
2 | CC(C)(C)c1ccc(Oc2ccc(N)cn2)cc1 [6-(4-(tert-butyl)phenoxy)pyridin-3-amine] | – | – | – | 37 | induces tumor growth retardation compared to vehicle treated group | 30 | –
3 | CC1(C)CCC(c2ccc(Cl)cc2)=C(CN2CCN(c3ccc(C(=O)NS(=O)(=O)c4ccc(N[C@H](CCN5CCOCC5)CSc5ccccc5)c(S(=O)(=O)C(F)(F)F)c4)cc3)CC2)C1 [ABT-263 (Navitoclax), 4-[4-[[2-(4-chlorophenyl)-5,5-dimethylcydohexen-1-yl]methyl]piperazin-1-yl]-N-[4-[[(2R)-4-morpholin-4-yl-1-phenylsulfonylbutan-2-yl]amino]-3-(trifluoromethylsulfonyl)phenyl]sulfonylbenzamide] | 20 | 5.5 | 21 | 57 | induces tumor growth retardation compared to vehicle treated group | – | –
4 | CC1(C)CCC(CN2CCN(c3ccc(C(=O)NS(=O)(=O)c4ccc(NCC5CCOCC5)c([N+](=O)[O-])c4)c(Oc4cnc5[nH]ccc5c4)c3)CC2)=C(c2ccc(Cl)cc2)C1 [Venetoclax, 4-[4-[[2-(4-chlorophenyl)-4,4-dimethylcydohexen-1-yl]methyl]piperazin-1-yl]-N-[3-nitro-4-(oxan-4-ylmethylamino)phenyl]sulfonyl-2-(1H-pyrrolo[2,3-b]pyridin-5-yloxy)benzamide] | – | – | – | – | – | 28 | decrease of white blood cells, lymphocytes, neutrophils, monocytes and mean platelet mass

Source: patent US20240041884A1, “Pharmaceutical Combinations for Treating Cancer” (Cellestia Biotech AG, priority 2020, published 2024)
